IC50 data for 2 substances are collected here from patent US8847000B2 (priority 2006, dated 2014).

In the assay the test system is cell proliferation. In kind it is cell-based.

A value given as a limit tells only on which side of the number the result lay.

By IC50 is commonly meant the concentration needed to halve the response being measured. The low end stands for inhibition by little substance, the high end for a need for much substance. Substance Arsenious acid returned a 50% inhibitory concentration (IC50) of 10 µM.

trimethylarsineoxide [TMAO] registered an IC50 greater than 6000 µM.
